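Each compound was tested at five concentrations against cells in 96-well plates for 48 hours. At the TGI there is no net growth.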
Legend:
Assay in all cases: growth of human tumour cells (NCI), 48 h
[1] = system: 786-0 renal
[2] = system: A498 renal
[3] = system: A549 NSCLC
[4] = system: ACHN renal
[5] = system: CAKI-1 renal
[6] = system: CCRF-CEM leukemia
[7] = system: DU-145 prostate
[8] = system: EKVX NSCLC
[9] = system: HCT-116 colon
[10] = system: HCT-15 colon
[11] = system: HL-60(TB) leukemia
[12] = system: HOP-62 NSCLC
[13] = system: HOP-92 NSCLC
[14] = system: HS 578T breast
[15] = system: HT29 colon
[16] = system: IGROV1 ovarian
[17] = system: K-562 leukemia
[18] = system: KM12 colon
[19] = system: LOX IMVI melanoma
[20] = system: M14 melanoma
[21] = system: MCF7 breast
[22] = system: MDA-MB-231 breast
[23] = system: MDA-MB-435
[24] = system: MDA-N
[25] = system: MOLT-4 leukemia
[26] = system: OVCAR-5 ovarian
[27] = system: OVCAR-8 ovarian
[28] = system: PC-3 prostate
[29] = system: RPMI-8226 leukemia
[30] = system: RXF 393 renal
[31] = system: SF-268 CNS
[32] = system: SK-MEL-2 melanoma
[33] = system: SK-MEL-28 melanoma
[34] = system: SK-MEL-5 melanoma
[35] = system: SK-OV-3 ovarian
[36] = system: SN12C renal
[37] = system: SNB-19 CNS
[38] = system: SNB-75 CNS
[39] = system: SR leukemia
[40] = system: SW-620 colon
[41] = system: TK-10 renal
[42] = system: U251 CNS
[43] = system: UACC-257 melanoma
[44] = system: UACC-62 melanoma
[45] = system: BT-549 breast
[46] = system: COLO 205 colon
[47] = system: MALME-3M melanoma
[48] = system: NCI-H226 lung
[49] = system: NCI-H23 lung
[50] = system: NCI-H460 lung
[51] = system: NCI-H522 lung
[52] = system: OVCAR-4 ovarian
[53] = system: SF-295 CNS
[54] = system: SF-539 CNS
[55] = system: UO-31 renal
[56] = system: HCC-2998 colon
[57] = system: NCI/ADR-RES ovarian
[58] = system: OVCAR-3 ovarian
[59] = system: T-47D breast

CC1CC/C(=C\c2ccc(F)cc2)C2=C1C(c1ccc(F)cc1)n1c(s/c(=C/c3cccc(Br)c3)c1=O)=N2 (centres undefined)
TGI [1]: > 100 µM | TGI [2]: > 100 µM | TGI [3]: > 100 µM | TGI [4]: > 100 µM | TGI [5]: > 100 µM | TGI [6]: > 100 µM | TGI [7]: > 100 µM | TGI [8]: > 100 µM | TGI [9]: > 100 µM | TGI [10]: > 100 µM | TGI [11]: > 100 µM | TGI [12]: > 100 µM | TGI [13]: > 100 µM | TGI [14]: > 100 µM | TGI [15]: > 100 µM | TGI [16]: > 100 µM | TGI [17]: > 100 µM | TGI [18]: > 100 µM | TGI [19]: > 100 µM | TGI [20]: > 100 µM | TGI [21]: > 100 µM | TGI [22]: > 100 µM | TGI [23]: > 100 µM | TGI [24]: > 100 µM | TGI [25]: > 100 µM | TGI [26]: > 100 µM | TGI [27]: > 100 µM | TGI [28]: > 100 µM | TGI [29]: > 100 µM | TGI [30]: > 100 µM | TGI [31]: > 100 µM | TGI [32]: > 100 µM | TGI [33]: > 100 µM | TGI [34]: > 100 µM | TGI [35]: > 100 µM | TGI [36]: > 100 µM | TGI [37]: > 100 µM | TGI [38]: > 100 µM | TGI [39]: > 100 µM | TGI [40]: > 100 µM | TGI [41]: > 100 µM | TGI [42]: > 100 µM | TGI [43]: > 100 µM | TGI [44]: > 100 µM

O=c1cc(-c2ccccc2)nc(-n2[nH]c3c(c2=O)CCCC3)[nH]1
TGI [1]: 46.3 µM | TGI [2]: > 100 µM | TGI [3]: > 100 µM | TGI [4]: 80.1 µM | TGI [45]: > 100 µM | TGI [5]: > 100 µM | TGI [6]: 35.8 µM | TGI [46]: 40.8 µM | TGI [7]: 3.97 µM | TGI [8]: > 100 µM | TGI [9]: 18.6 µM | TGI [10]: > 100 µM | TGI [11]: > 100 µM | TGI [13]: > 100 µM | TGI [14]: > 100 µM | TGI [15]: 33.8 µM | TGI [16]: > 100 µM | TGI [17]: > 100 µM | TGI [18]: > 100 µM | TGI [20]: 26.8 µM | TGI [47]: > 100 µM | TGI [21]: > 100 µM | TGI [22]: > 100 µM | TGI [23]: 89.9 µM | TGI [24]: > 100 µM | TGI [25]: > 100 µM | TGI [48]: > 100 µM | TGI [49]: > 100 µM | TGI [50]: > 100 µM | TGI [51]: 69.6 µM | TGI [52]: 61.9 µM | TGI [26]: > 100 µM | TGI [28]: > 100 µM | TGI [29]: 65.7 µM | TGI [30]: 25.5 µM | TGI [31]: > 100 µM | TGI [53]: > 100 µM | TGI [54]: 44.6 µM | TGI [32]: 29.4 µM | TGI [33]: 28.9 µM | TGI [34]: > 100 µM | TGI [35]: > 100 µM | TGI [36]: > 100 µM | TGI [37]: > 100 µM | TGI [38]: 14.2 µM | TGI [39]: > 100 µM | TGI [40]: > 100 µM | TGI [41]: > 100 µM | TGI [42]: > 100 µM | TGI [43]: > 100 µM | TGI [44]: 15.6 µM | TGI [55]: > 100 µM

COc1cc(C(c2c(O)c3ccccc3oc2=O)c2c(O)c3ccccc3oc2=O)ccc1O
TGI [1]: 56 µM | TGI [2]: > 100 µM | TGI [3]: > 100 µM | TGI [4]: 40.2 µM | TGI [45]: 38.9 µM | TGI [5]: 36.5 µM | TGI [6]: 89.6 µM | TGI [46]: 31.7 µM | TGI [7]: 52.6 µM | TGI [8]: 80.9 µM | TGI [56]: 33.9 µM | TGI [9]: > 100 µM | TGI [10]: 36 µM | TGI [11]: 57.9 µM | TGI [12]: > 100 µM | TGI [13]: 33.8 µM | TGI [14]: > 100 µM | TGI [15]: 40.8 µM | TGI [16]: 27.2 µM | TGI [17]: > 100 µM | TGI [18]: 87.1 µM | TGI [19]: 65.1 µM | TGI [20]: 34.7 µM | TGI [47]: 38 µM | TGI [21]: 38.2 µM | TGI [22]: 35.9 µM | TGI [23]: > 100 µM | TGI [24]: 44.8 µM | TGI [25]: 62.4 µM | TGI [48]: > 100 µM | TGI [49]: > 100 µM | TGI [50]: 44.6 µM | TGI [51]: 43.2 µM | TGI [57]: > 100 µM | TGI [58]: 34.6 µM | TGI [52]: > 100 µM | TGI [26]: 41.3 µM | TGI [27]: > 100 µM | TGI [28]: 94.6 µM | TGI [29]: > 100 µM | TGI [30]: 33.7 µM | TGI [31]: 45.4 µM | TGI [53]: > 100 µM | TGI [54]: 53.9 µM | TGI [32]: 58.5 µM | TGI [33]: 36.5 µM | TGI [34]: 30.3 µM | TGI [35]: > 100 µM | TGI [36]: 42 µM | TGI [37]: 92 µM | TGI [38]: 66.1 µM | TGI [40]: 63.1 µM | TGI [59]: 33.9 µM | TGI [41]: 46.1 µM | TGI [42]: 58.4 µM | TGI [43]: 37.1 µM | TGI [44]: 35.4 µM | TGI [55]: 65.6 µM

Source: PubChem BioAssay (NCI)
